# In US9011826B2, “Cosmetic and dermatological formulations including isononyl benzoate” (Evonik Degussa GmbH, priority 2007, dated 2015):
# Tests used:
# [1] = Dissolving power for crystalline UV light protection filters; assay type: physicochemical; conditions: 22° C., percent by weight; for Dissolving power (maximum dissolved amount of UV filter) BP-3: Benzophenone-3 dissolved in the product; for Dissolving power (maximum dissolved amount of UV filter) BEMT: Bis-ethylhexyloxyphenol Methoxyphenyl Triazine dissolved in the product; for Dissolving power (maximum dissolved amount of UV filter) BMDM: Butyl Methoxydibenzoylmethane dissolved in the product; for Dissolving power (maximum dissolved amount of UV filter) EHT: Octyl Triazone dissolved in the product
# Text: Four representative UV-A or UV-B light protection filters were chosen as representatives for testing the dissolving power for crystalline UV light protection filters in isononyl benzoate (Vestinol® INB, Evonik Oxeno GmbH). These were Benzophenone-3 (2-hydroxy-4-methoxy-benzophenone, BP-3), Butyl Methoxydibenzoylmethane (BMDM), Octyl Triazone (2,4,6-trianilino-p-(carbo-2′-ethylhexyl-1′-oxy)-1,3,5-triazine, EHT) and bemotrizinol (Bis-ethylhexyloxyphenol Methoxyphenyl Triazine, BEMT).
# For determination of the dissolving power for these […] UV light protection filters, in each case a particular amount (50 g) of one of the compounds according to the invention was initially introduced into the dissolving vessel and temperature-controlled at 22° C. 1 percent by weight of a UV light protection filter was then added and the mixture was stirred until this amount had dissolved completely and homogeneously. This operation was repeated until the maximum amount of the UV light protection filter which can be dissolved had been exceeded. For complete dissolving, a relatively long stirring time of several hours was often necessary at higher concentrations.
# Once the maximum concentration had been roughly determined in this manner, the test was repeated with smaller weights of the UV light protection filter for fine determination of the concentration range around this maximum concentration.
# The compound Tegosoft® TN (C12-15 Alkyl Benzoate) was used as a reference.
# [2] = known solvents (lipids) for this UV-B filter; cited from earlier work
compound,measurement,setting,value
"C12-15 Alkyl Benzoate [Tegosoft ® TN, reference compound]",Dissolving power (maximum dissolved amount of UV filter) BP-3,[1],15%
same,Dissolving power (maximum dissolved amount of UV filter) BEMT,[1],9%
same,Dissolving power (maximum dissolved amount of UV filter) BMDM,[1],13%
same,Dissolving power (maximum dissolved amount of UV filter) EHT,[1],4%
"CCCCC(CC)COC(=O)c1ccc(Nc2nc(Nc3ccc(C(=O)OCC(CC)CCCC)cc3)nc(Nc3ccc(C(=O)OCC(CC)CCCC)cc3)n2)cc1 (stereo not drawn) [UVINUL™ T 150, 4,4′,4″-(1,3,5-Triazine-2,4,6-triyltriimino)-tris-benzoic acid tris(2-ethylhexyl ester)]",Maximum amount of the filter dissolved by known solvents,[2],approx. 15 wt. %
"CC(C)CCCCCCOC(=O)c1ccccc1 [Isononyl Benzoate, isononyl benzoate]",Dissolving power (maximum dissolved amount of UV filter) BP-3,[1],21%
same,Dissolving power (maximum dissolved amount of UV filter) BEMT,[1],12%
same,Dissolving power (maximum dissolved amount of UV filter) BMDM,[1],14%
same,Dissolving power (maximum dissolved amount of UV filter) EHT,[1],6%
